Measurements reported in ChEMBL document CHEMBL1149998, “Tannins as selective inhibitors of protein kinase C” (Bioorg Med Chem Lett, 1992).

What was measured:
[1] = target: Protein kinase C (PKC); test: Inhibitory activity against protein kinase C (PKC); assay type: protein assay, Homo sapiens
[2] = Inhibitory activity against c-AMP kinase; Did not inhibit c-AMP kinase
[3] = target: Protein kinase C, PKC; classical/novel (Homo sapiens) (UniProt O94806+P17252+P05129+Q05655+P05771+Q02156+P24723+Q15139+Q04759); test: Displacement of phorbol [3H]PDBu from protein kinase C; A - Did displace phorbol (PDBu) at 50 uM or less; assay type: protein assay

With `O=C(OC[C@H]1OC(O)[C@@](O)(COC(=O)c2cc(O)c(O)c(O)c2)[C@@H]1O)c1cc(O)c(O)c(O)c1` (some centres undefined) [HAMAMELITANNIN] the IC50 [1] was > 100 µM.

For `O=C(OC[C@H]1O[C@H](OC(=O)c2cc(O)c(O)c(O)c2)[C@H](O)[C@@H](O)[C@@H]1OC(=O)c1cc(O)c(O)c(O)c1)c1cc(O)c(O)c(O)c1`, the IC50 [1] was > 100 µM.

With `O=C(O[C@H]1[C@H](O)C[C@](OC(=O)c2cc(O)c(O)c(O)c2)(C(=O)O)C[C@H]1O)c1cc(O)c(O)c(O)c1` the IC50 [2] was “Not Active” and the IC50 [1] was > 100 µM.

Compound `O=C1O[C@H]2[C@H](O)[C@@H](OC(=O)c3cc(O)c(O)c4c3C3C1=CC(=O)C(O)(O)C3(O)O4)[C@@H](OC(=O)c1cc(O)c(O)c(O)c1)O[C@@H]2CO` (some centres undefined) has an IC50 [1] of 86 µM.

In the case of `O=C1OCC2OC(=O)c3cc(O)c(O)c(O)c3-c3c(O)c(O)c(O)c4c3C(=O)OC(C2OC(=O)c2cc(O)c(O)c(O)c2-c2c1cc(O)c(O)c2O)C1OC(=O)c2c-4c(O)c(O)c(O)c2[C@@H]1[C@@]1(O)O[C@@H](CO)[C@@H](O)[C@H]1O` (some centres undefined), the IC50 [2] is reported as “Not Active”, the Phorbol displacement [3] is reported as < 50 µM and the IC50 [1] is reported as 12 µM.

With `O=C(O[C@@H]1[C@@H](c2c(O)cc(O)c3c2O[C@H](c2ccc(O)c(O)c2)[C@H](OC(=O)c2cc(O)c(O)c(O)c2)C3)c2c(O)cc(O)cc2O[C@@H]1c1ccc(O)c(O)c1)c1cc(O)c(O)c(O)c1` the IC50 [2] was “Not Active”, the Phorbol displacement [3] was < 50 µM and the IC50 [1] was 4 µM.

For `O=C(O[C@@H]1C[C@](O)(C(=O)O)C[C@@H](OC(=O)c2cc(O)c(O)c(O)c2)[C@H]1OC(=O)c1cc(O)c(O)c(O)c1)c1cc(O)c(O)c(O)c1`, the IC50 [1] was > 100 µM.

With `O=C(OC[C@H]1O[C@@H](OC(=O)c2cc(O)c(O)c(O)c2)[C@H](OC(=O)c2cc(O)c(O)c(O)c2)[C@@H](O)[C@@H]1O)c1cc(O)c(O)c(O)c1` the IC50 [1] was > 100 µM.

Work on `O=C(O)C[C@@H]1C(=O)O[C@H]2[C@H](OC(=O)c3cc(O)c(O)c(O)c3)[C@@H](OC(=O)c3cc(O)c(O)c4c3[C@H]1[C@H](O)C(=O)O4)[C@@H](OC(=O)c1cc(O)c(O)c(O)c1)O[C@@H]2COC(=O)c1cc(O)c(O)c(O)c1` yielded an IC50 [1] of 30 µM.

With `O=C(OC1Cc2c(O)cc(O)c([C@H]3c4c(O)cc(O)c([C@H]5c6c(O)cc(O)cc6O[C@H](c6ccc(O)c(O)c6)[C@@H]5OC(=O)c5cc(O)c(O)c(O)c5)c4O[C@H](c4ccc(O)c(O)c4)C3OC(=O)c3cc(O)c(O)c(O)c3)c2O[C@@H]1c1ccc(O)c(O)c1)c1cc(O)c(O)c(O)c1` (some centres undefined) the IC50 [2] was “Not Active”, the Phorbol displacement [3] was < 50 µM and the IC50 [1] was 2 µM.

In the case of `O=C(O)C1=C[C@@H](O)[C@@H](O)[C@H](OC(=O)c2cc(O)c(O)c(OC(=O)c3cc(O)c(O)c(O)c3)c2)C1`, the IC50 [1] is reported as > 100 µM.

In the case of `Oc1cc(O)c2c(c1)O[C@H](c1ccc(O)c(O)c1)[C@H](O)[C@H]2c1c(O)cc(O)c2c1O[C@@]1(c3ccc(O)c(O)c3)Oc3cc(O)c4c(c3C2[C@H]1O)O[C@H](c1ccc(O)c(O)c1)[C@H](O)C4c1c(O)cc(O)c2c1O[C@H](c1ccc(O)c(O)c1)[C@H](O)C2` (some centres undefined), the IC50 [2] is reported as “Not Active”, the Phorbol displacement [3] is reported as < 50 µM and the IC50 [1] is reported as 15 µM.

In the case of `O=C(O)C1=C[C@@H](OC(=O)c2cc(O)c(O)c(O)c2)[C@@H](O)[C@H](OC(=O)c2cc(O)c(O)c(O)c2)C1`, the IC50 [1] is reported as > 100 µM.

For `Oc1cc(O)c2c(c1)O[C@@]1(c3ccc(O)c(O)c3)Oc3cc(O)c4c(c3C2[C@H]1O)O[C@H](c1ccc(O)c(O)c1)[C@H](O)C4`, the IC50 [1] was > 100 µM.

In the case of `CC1(C)CC[C@]2(C(=O)O[C@@H]3O[C@H](CO)[C@@H](O)[C@H](O)[C@H]3O)CC[C@]3(C)C(=CC[C@@H]4[C@@]5(C)C[C@@H](O)[C@@H]6OC(=O)c7cc(O)c(O)c(O)c7-c7c(cc(O)c(O)c7O)C(=O)OC[C@@]6(CO)C5CC[C@]43C)C2C1` (some centres undefined), the IC50 [2] is reported as “Not Active”, the Phorbol displacement [3] is reported as < 50 µM and the IC50 [1] is reported as 18 µM.

With `O=C(O[C@@H]1O[C@@H]2COC(=O)c3cc(O)c(O)c(O)c3-c3c(cc(O)c(O)c3O)C(=O)O[C@H]([C@H]1O)[C@@H]2O)c1cc(O)c(O)c(O)c1` [CORILAGIN] the IC50 [1] was 20 µM.

In the case of `O=C(OC[C@H]1O[C@@H](O)[C@H](OC(=O)c2cc(O)c(O)c(O)c2)[C@@H](OC(=O)c2cc(O)c(O)c(O)c2)[C@@H]1OC(=O)c1cc(O)c(O)c(O)c1)c1cc(O)c(O)c(O)c1`, the IC50 [2] is reported as “Not Active”, the Phorbol displacement [3] is reported as < 50 µM and the IC50 [1] is reported as 82 µM.

With `Oc1cc(O)c2c(c1)O[C@H](c1ccc(O)c(O)c1)C(O)[C@H]2c1c(O)cc(O)c2c1O[C@H](c1ccc(O)c(O)c1)C(O)C2` (some centres undefined) the IC50 [1] was > 100 µM.

In the case of `O=C(OC[C@H]1O[C@H](OC(=O)c2cc(O)c(O)c(O)c2)[C@H](OC(=O)c2cc(O)c(O)c(O)c2)[C@@H](OC(=O)c2cc(O)c(O)c(O)c2)[C@@H]1O)c1cc(O)c(O)c(O)c1`, the IC50 [2] is reported as “Not Active”, the Phorbol displacement [3] is reported as < 50 µM and the IC50 [1] is reported as 20 µM.

For `O=C(O[C@@H]1C[C@](OC(=O)c2cc(O)c(O)c(O)c2)(C(=O)O)C[C@@H](OC(=O)c2cc(O)c(O)c(O)c2)[C@H]1OC(=O)c1cc(O)c(O)c(O)c1)c1cc(O)c(O)c(O)c1`, the IC50 [2] was “Not Active”, the Phorbol displacement [3] was < 50 µM and the IC50 [1] was 64 µM.

For `O=C1OC2COC(=O)c3cc(O)c(O)c(O)c3-c3c(O)c(O)c4oc(=O)c5c(c(O)c(O)c6oc(=O)c3c4c65)-c3c(cc(O)c(O)c3O)C(=O)OC2C2OC(=O)c3c(c(O)c(O)c(O)c3-c3c(O)c(O)c(O)c4c3C(=O)OC2[C@@H]4O)-c2c1cc(O)c(O)c2O` (some centres undefined), the IC50 [1] was 4 µM.

In the case of `O=C1OCC2OC(=O)c3cc(O)c(O)c(O)c3-c3c(O)c(O)c(O)c4c3C(=O)OC(C2OC(=O)c2cc(O)c(O)c(O)c2-c2c1cc(O)c(O)c2O)C1OC(=O)c2c-4c(O)c(O)c(O)c2[C@@H]1O` (some centres undefined), the IC50 [2] is reported as “Not Active”, the Phorbol displacement [3] is reported as < 50 µM and the IC50 [1] is reported as 4 µM.

In the case of `C=C1O[C@H]2[C@@H]3OC(=O)c4cc(O)c(O)c(O)c4-c4c(cc(O)c(O)c4O)C(=O)OC[C@H]2O[C@@H](OC(=O)c2cc(O)c(O)c(O)c2)[C@@H]3OC(=O)c2cc(O)c(O)c3c2C2C(O)(O3)C3(O)OC4(C(=O)OC5C(O)COC54O)C12CC3=O` (some centres undefined), the IC50 [2] is reported as “Not Active”, the Phorbol displacement [3] is reported as < 50 µM and the IC50 [1] is reported as 17 µM.

With `Oc1cc(O)c2c(c1)O[C@H](c1ccc(O)c(O)c1)C(O)C2` (some centres undefined) the IC50 [1] was > 100 µM.

In the case of `CC1O[C@H](O)C2OC(=O)c3cc(O)c(O)c(O)c3-c3c(cc(O)c(O)c3O)C(=O)OC2C1O` (some centres undefined), the IC50 [1] is reported as > 100 µM.

For `O=C(O[C@H]1[C@H](O)C[C@](O)(C(=O)O)C[C@H]1O)c1cc(O)c(O)c(O)c1`, the IC50 [1] was > 100 µM.

In the case of `O=C(OC[C@H]1O[C@@H](OC(=O)c2cc(O)c(O)c(O)c2)[C@H](O)[C@@H](O)[C@@H]1O)c1cc(O)c(O)c(O)c1`, the IC50 [1] is reported as > 100 µM.

With `O=C(OC[C@H]1O[C@@H](OC(=O)c2cc(O)c(O)c(O)c2)[C@H](OC(=O)c2cc(O)c(O)c(O)c2)[C@@H](OC(=O)c2cc(O)c(O)c(O)c2)[C@@H]1OC(=O)c1cc(O)c(O)c(O)c1)c1cc(O)c(O)c(O)c1` [PENTAGALLOYL GLUCOSE] the Phorbol displacement [3] was < 50 µM and the IC50 [1] was 4 µM.

In the case of `O=C1OCC2OC(=O)c3cc(O)c(O)c(O)c3-c3c(O)c(O)c(O)c4c3C(=O)OC(C2OC(=O)c2cc(O)c(O)c(O)c2-c2c1cc(O)c(O)c2O)C1OC(=O)c2c-4c(O)c(O)c(O)c2[C@H]1O` (some centres undefined), the IC50 [2] is reported as “Not Active”, the Phorbol displacement [3] is reported as < 50 µM and the IC50 [1] is reported as 8 µM.

With `O=C(OC[C@H]1O[C@H](O)[C@@](O)(COC(=O)c2cc(O)c(O)c(O)c2)[C@@H]1OC(=O)c1cc(O)c(O)c(O)c1)c1cc(O)c(O)c(O)c1` the IC50 [1] was > 100 µM.

For `O=C(O[C@@H]1O[C@H](CO)[C@@H](O)[C@H](O)[C@H]1O)c1cc(O)c(O)c(O)c1`, the IC50 [1] was > 100 µM.

In the case of `Oc1cc(O)c2c(c1)O[C@@]1(c3ccc(O)c(O)c3)Oc3cc(O)c4c(c3C2[C@H]1O)O[C@H](c1ccc(O)c(O)c1)[C@H](O)C4c1c(O)cc(O)c2c1O[C@H](c1ccc(O)c(O)c1)[C@H](O)C2` (some centres undefined), the IC50 [2] is reported as “Not Active”, the Phorbol displacement [3] is reported as < 50 µM and the IC50 [1] is reported as 30 µM.

For `O=C1O[C@H]2[C@H](OC(=O)c3cc(O)c(O)c(O)c3)[C@@H](OC(=O)c3cc(O)c(O)c4c3C3C1=CC(=O)C(O)(O)C3(O)O4)[C@@H](OC(=O)c1cc(O)c(O)c(O)c1)O[C@@H]2COC(=O)c1cc(O)c(O)c(O)c1` (some centres undefined), the IC50 [2] was “Not Active”, the Phorbol displacement [3] was < 50 µM and the IC50 [1] was 16 µM.

For `O=C(O)C1=C[C@@H](O)[C@@H](O)[C@H](OC(=O)c2cc(O)c(O)c(O)c2)C1`, the IC50 [1] was > 100 µM.

With `O=C1O[C@H]2[C@@H]3OC(=O)c4cc(O)c(O)c(O)c4-c4c(cc(O)c(O)c4O)C(=O)OC[C@H]2O[C@H](OC(=O)c2cc(O)c(O)c(O)c2)[C@@H]3OC(=O)c2cc(O)c(O)c3c2C2C1=CC(=O)C(O)(O)C2(O)O3` (some centres undefined) the IC50 [2] was “Not Active” and the IC50 [1] was 11 µM.

For `O=C(O[C@@H]1O[C@@H]2COC(=O)c3cc(O)c(O)c(O)c3-c3c(cc(O)c(O)c3O)C(=O)O[C@H]([C@H]1OC(=O)c1cc(O)c(O)c(O)c1)[C@@H]2OC(=O)c1cc(O)c(O)c(O)c1)c1cc(O)c(O)c(O)c1` [PUNICAFOLIN], the IC50 [2] was “Not Active”, the Phorbol displacement [3] was < 50 µM and the IC50 [1] was 4 µM.

For `Oc1cc(O)c2c(c1)O[C@H](c1ccc(O)c(O)c1)[C@H](O)[C@H]2c1c(O)cc(O)c2c1O[C@H](c1ccc(O)c(O)c1)[C@H](O)[C@H]2c1c(O)cc(O)c2c1O[C@H](c1ccc(O)c(O)c1)[C@H](O)C2` [PROCYANIDIN C1], the IC50 [2] was “Not Active”, the Phorbol displacement [3] was < 50 µM and the IC50 [1] was 40 µM.

In the case of `O=C(O[C@H]1[C@H](O)C[C@](OC(=O)c2cc(O)c(O)c(O)c2)(C(=O)O)C[C@H]1OC(=O)c1cc(O)c(O)c(O)c1)c1cc(O)c(O)c(O)c1`, the IC50 [2] is reported as “Not Active”, the Phorbol displacement [3] is reported as < 50 µM and the IC50 [1] is reported as > 100 µM.

`O=C(O)C[C@@H]1C(=O)O[C@H]2[C@@H]3OC(=O)c4cc(O)c(O)c(O)c4-c4c(cc(O)c(O)c4O)C(=O)OC[C@H]2O[C@@H](OC(=O)c2cc(O)c(O)c(O)c2)[C@@H]3OC(=O)c2cc(O)c(O)c3c2[C@H]1[C@H](O)C(=O)O3` [CHEBULAGIC ACID] gave an IC50 [1] of 30 µM.
